Earlier results in paper PMC9389927 (Renal Failure, 2022).

System: experimental model of AKI

## IGF-1: long-chain polypeptide composed of dozens of amino acids, including four domains, A, B, C and D
  Glomerular filtration rate: increased the glomerular filtration rate
